Test results published in patent US10765114B2, “4-amino-6-(pyridyl and 2-substitutedphenyl)-picolinates and 6-amino-2-(pyridyl and 2-substitutedphenyl)-pyrimidine-4-carboxylates and their use as herbicides” (Dow AgroSciences LLC, priority 2013, dated 2020).

The compounds below were run on Key Broadleaf Weed and Crop Species (assay: Post-Emergent Test II (Table 5)). Details: Abutilon theophrasti, post-emergence, 336 h, ABUTH: velvetleaf (Abutilon theophrasti), application rate 70 (kg ai/ha; footnote: g ai/ha), read-out: Visual Growth Reduction (%) 14 Days After Application ABUTH.
Assay type: in vivo
How it was run: (§1)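 Visual injury ratings (0 = no injury, 100 = complete kill) were taken 14 days after treatment relative to untreated plants. Seedlings at the first or second true leaf stage received an overhead spray at 187 L/ha, and solvent-blank sprayed plants served as controls.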

| Compound | pest or weed control at 70 g/ha [%] |
| --- | --- |
| COC(=O)c1nc(-c2ccc(Cl)c(F)c2C)nc(N)c1OC [Compound 63] | 0 to 29 |

Same assay, conditions: Abutilon theophrasti, post-emergence, 336 h, ABUTH: velvetleaf (Abutilon theophrasti), application rate 140 (kg ai/ha; footnote: g ai/ha), read-out: Visual Growth Reduction (%) 14 Days After Application ABUTH

| Compound | pest or weed control at 140 g/ha [%] |
| --- | --- |
| COC(=O)c1nc(-c2ccc(Cl)c(F)c2C)nc(N)c1OC [Compound 63] | 0 to 29 |

Same assay, conditions: Amaranthus retroflexus, post-emergence, 336 h, AMARE: redroot pigweed (Amaranthus retroflexus), application rate 70 (kg ai/ha; footnote: g ai/ha), read-out: Visual Growth Reduction (%) 14 Days After Application AMARE

| Compound | pest or weed control at 70 g/ha [%] |
| --- | --- |
| COC(=O)c1nc(-c2ccc(Cl)c(F)c2C)nc(N)c1OC [Compound 63] | 85 to 94 |

Same assay, conditions: Amaranthus retroflexus, post-emergence, 336 h, AMARE: redroot pigweed (Amaranthus retroflexus), application rate 140 (kg ai/ha; footnote: g ai/ha), read-out: Visual Growth Reduction (%) 14 Days After Application AMARE

| Compound | pest or weed control at 140 g/ha [%] |
| --- | --- |
| COC(=O)c1nc(-c2ccc(Cl)c(F)c2C)nc(N)c1OC [Compound 63] | 85 to 94 |

Same assay, conditions: Brassica napus, post-emergence, 336 h, BRSSS: oilseed rape, canola (Brassica napus), application rate 70 (kg ai/ha; footnote: g ai/ha), read-out: Visual Growth Reduction (%) 14 Days After Application BRSSS

| Compound | pest or weed control at 70 g/ha [%] |
| --- | --- |
| COC(=O)c1nc(-c2ccc(Cl)c(F)c2C)nc(N)c1OC [Compound 63] | 30 to 44 |

Same assay, conditions: Brassica napus, post-emergence, 336 h, BRSSS: oilseed rape, canola (Brassica napus), application rate 140 (kg ai/ha; footnote: g ai/ha), read-out: Visual Growth Reduction (%) 14 Days After Application BRSSS

| Compound | pest or weed control at 140 g/ha [%] |
| --- | --- |
| COC(=O)c1nc(-c2ccc(Cl)c(F)c2C)nc(N)c1OC [Compound 63] | 45 to 59 |

Same assay, conditions: Chenopodium album, post-emergence, 336 h, CHEAL: lambsquarters (Chenopodium album), application rate 70 (kg ai/ha; footnote: g ai/ha), read-out: Visual Growth Reduction (%) 14 Days After Application CHEAL

| Compound | pest or weed control at 70 g/ha [%] |
| --- | --- |
| COC(=O)c1nc(-c2ccc(Cl)c(F)c2C)nc(N)c1OC [Compound 63] | 85 to 94 |

Same assay, conditions: Chenopodium album, post-emergence, 336 h, CHEAL: lambsquarters (Chenopodium album), application rate 140 (kg ai/ha; footnote: g ai/ha), read-out: Visual Growth Reduction (%) 14 Days After Application CHEAL

| Compound | pest or weed control at 140 g/ha [%] |
| --- | --- |
| COC(=O)c1nc(-c2ccc(Cl)c(F)c2C)nc(N)c1OC [Compound 63] | 85 to 94 |

Same assay, conditions: Euphorbia heterophylla, post-emergence, 336 h, EPHHL: wild poinsettia (Euphorbia heterophylla), application rate 70 (kg ai/ha; footnote: g ai/ha), read-out: Visual Growth Reduction (%) 14 Days After Application EPHHL

| Compound | pest or weed control at 70 g/ha [%] |
| --- | --- |
| COC(=O)c1nc(-c2ccc(Cl)c(F)c2C)nc(N)c1OC [Compound 63] | 0 to 29 |

Same assay, conditions: Euphorbia heterophylla, post-emergence, 336 h, EPHHL: wild poinsettia (Euphorbia heterophylla), application rate 140 (kg ai/ha; footnote: g ai/ha), read-out: Visual Growth Reduction (%) 14 Days After Application EPHHL

| Compound | pest or weed control at 140 g/ha [%] |
| --- | --- |
| COC(=O)c1nc(-c2ccc(Cl)c(F)c2C)nc(N)c1OC [Compound 63] | 0 to 29 |

Same assay, conditions: Helianthus annuus, post-emergence, 336 h, HELAN: sunflower (Helianthus annuus), application rate 70 (kg ai/ha; footnote: g ai/ha), read-out: Visual Growth Reduction (%) 14 Days After Application HELAN

| Compound | pest or weed control at 70 g/ha [%] |
| --- | --- |
| COC(=O)c1nc(-c2ccc(Cl)c(F)c2C)nc(N)c1OC [Compound 63] | 75 to 84 |

Same assay, conditions: Helianthus annuus, post-emergence, 336 h, HELAN: sunflower (Helianthus annuus), application rate 140 (kg ai/ha; footnote: g ai/ha), read-out: Visual Growth Reduction (%) 14 Days After Application HELAN

| Compound | pest or weed control at 140 g/ha [%] |
| --- | --- |
| COC(=O)c1nc(-c2ccc(Cl)c(F)c2C)nc(N)c1OC [Compound 63] | 75 to 84 |

Same assay, conditions: Viola tricolor, post-emergence, 336 h, VIOTR: wild pansy (Viola tricolor), application rate 70 (kg ai/ha; footnote: g ai/ha), read-out: Visual Growth Reduction (%) 14 Days After Application VIOTR

| Compound | pest or weed control at 70 g/ha [%] |
| --- | --- |
| COC(=O)c1nc(-c2ccc(Cl)c(F)c2C)nc(N)c1OC [Compound 63] | 0 to 29 |

Same assay, conditions: Viola tricolor, post-emergence, 336 h, VIOTR: wild pansy (Viola tricolor), application rate 140 (kg ai/ha; footnote: g ai/ha), read-out: Visual Growth Reduction (%) 14 Days After Application VIOTR

| Compound | pest or weed control at 140 g/ha [%] |
| --- | --- |
| COC(=O)c1nc(-c2ccc(Cl)c(F)c2C)nc(N)c1OC [Compound 63] | 0 to 29 |

These compounds were tested on Key Grass and Sedge Weeds as well as Grass Crops (assay: Post-Emergent Test II (Table 6)). Details: post-emergence, 336 h, CYPSS, 70 g ai/ha, 14 days after application, read-out: Visual Growth Reduction (%) 14 Days After Application CYPSS.
Assay type: in vivo
How it was run: as §1

| Compound | pest or weed control at 70 g/ha [%] |
| --- | --- |
| COC(=O)c1nc(-c2ccc(Cl)c(F)c2C)nc(N)c1OC [Compound 63] | 0 to 29 |

Same assay, conditions: post-emergence, 336 h, CYPSS, 140 g ai/ha, 14 days after application, read-out: Visual Growth Reduction (%) 14 Days After Application CYPSS

| Compound | pest or weed control at 140 g/ha [%] |
| --- | --- |
| COC(=O)c1nc(-c2ccc(Cl)c(F)c2C)nc(N)c1OC [Compound 63] | 0 to 29 |

Same assay, conditions: post-emergence, 336 h, DIGSA: crabgrass (Digitaria sanguinalis), 70 g ai/ha, 14 days after application, read-out: Visual Growth Reduction (%) 14 Days After Application DIGSA

| Compound | pest or weed control at 70 g/ha [%] |
| --- | --- |
| COC(=O)c1nc(-c2ccc(Cl)c(F)c2C)nc(N)c1OC [Compound 63] | 0 to 29 |

Same assay, conditions: post-emergence, 336 h, DIGSA: crabgrass (Digitaria sanguinalis), 140 g ai/ha, 14 days after application, read-out: Visual Growth Reduction (%) 14 Days After Application DIGSA

| Compound | pest or weed control at 140 g/ha [%] |
| --- | --- |
| COC(=O)c1nc(-c2ccc(Cl)c(F)c2C)nc(N)c1OC [Compound 63] | 0 to 29 |

Same assay, conditions: post-emergence, 336 h, ECHSS, 70 g ai/ha, 14 days after application, read-out: Visual Growth Reduction (%) 14 Days After Application ECHSS

| Compound | pest or weed control at 70 g/ha [%] |
| --- | --- |
| COC(=O)c1nc(-c2ccc(Cl)c(F)c2C)nc(N)c1OC [Compound 63] | 0 to 29 |

Same assay, conditions: post-emergence, 336 h, ECHSS, 140 g ai/ha, 14 days after application, read-out: Visual Growth Reduction (%) 14 Days After Application ECHSS

| Compound | pest or weed control at 140 g/ha [%] |
| --- | --- |
| COC(=O)c1nc(-c2ccc(Cl)c(F)c2C)nc(N)c1OC [Compound 63] | 0 to 29 |

Same assay, conditions: post-emergence, 336 h, ORYSS (crop), 70 g ai/ha, 14 days after application, read-out: Visual Growth Reduction (%) 14 Days After Application ORYSS

| Compound | pest or weed control at 70 g/ha [%] |
| --- | --- |
| COC(=O)c1nc(-c2ccc(Cl)c(F)c2C)nc(N)c1OC [Compound 63] | 0 to 29 |

Same assay, conditions: post-emergence, 336 h, ORYSS (crop), 140 g ai/ha, 14 days after application, read-out: Visual Growth Reduction (%) 14 Days After Application ORYSS

| Compound | pest or weed control at 140 g/ha [%] |
| --- | --- |
| COC(=O)c1nc(-c2ccc(Cl)c(F)c2C)nc(N)c1OC [Compound 63] | 0 to 29 |

Same assay, conditions: post-emergence, 336 h, SETFA: giant foxtail (Setaria faberi), 70 g ai/ha, 14 days after application, read-out: Visual Growth Reduction (%) 14 Days After Application SETFA

| Compound | pest or weed control at 70 g/ha [%] |
| --- | --- |
| COC(=O)c1nc(-c2ccc(Cl)c(F)c2C)nc(N)c1OC [Compound 63] | 0 to 29 |

Same assay, conditions: post-emergence, 336 h, SETFA: giant foxtail (Setaria faberi), 140 g ai/ha, 14 days after application, read-out: Visual Growth Reduction (%) 14 Days After Application SETFA

| Compound | pest or weed control at 140 g/ha [%] |
| --- | --- |
| COC(=O)c1nc(-c2ccc(Cl)c(F)c2C)nc(N)c1OC [Compound 63] | 0 to 29 |

Same assay, conditions: post-emergence, 336 h, SORVU: grain sorghum (Sorghum vulgare), 70 g ai/ha, 14 days after application, read-out: Visual Growth Reduction (%) 14 Days After Application SORVU

| Compound | pest or weed control at 70 g/ha [%] |
| --- | --- |
| COC(=O)c1nc(-c2ccc(Cl)c(F)c2C)nc(N)c1OC [Compound 63] | 0 to 29 |

Same assay, conditions: post-emergence, 336 h, SORVU: grain sorghum (Sorghum vulgare), 140 g ai/ha, 14 days after application, read-out: Visual Growth Reduction (%) 14 Days After Application SORVU

| Compound | pest or weed control at 140 g/ha [%] |
| --- | --- |
| COC(=O)c1nc(-c2ccc(Cl)c(F)c2C)nc(N)c1OC [Compound 63] | 0 to 29 |

Same assay, conditions: post-emergence, 336 h, TRZSS (crop), 70 g ai/ha, 14 days after application, read-out: Visual Growth Reduction (%) 14 Days After Application TRZSS

| Compound | pest or weed control at 70 g/ha [%] |
| --- | --- |
| COC(=O)c1nc(-c2ccc(Cl)c(F)c2C)nc(N)c1OC [Compound 63] | 0 to 29 |

Same assay, conditions: post-emergence, 336 h, TRZSS (crop), 140 g ai/ha, 14 days after application, read-out: Visual Growth Reduction (%) 14 Days After Application TRZSS

| Compound | pest or weed control at 140 g/ha [%] |
| --- | --- |
| COC(=O)c1nc(-c2ccc(Cl)c(F)c2C)nc(N)c1OC [Compound 63] | 0 to 29 |

Same assay, conditions: post-emergence, 336 h, ZEAMX: maize, corn (Zea mays), 70 g ai/ha, 14 days after application, read-out: Visual Growth Reduction (%) 14 Days After Application ZEAMX

| Compound | pest or weed control at 70 g/ha [%] |
| --- | --- |
| COC(=O)c1nc(-c2ccc(Cl)c(F)c2C)nc(N)c1OC [Compound 63] | 0 to 29 |

Same assay, conditions: post-emergence, 336 h, ZEAMX: maize, corn (Zea mays), 140 g ai/ha, 14 days after application, read-out: Visual Growth Reduction (%) 14 Days After Application ZEAMX

| Compound | pest or weed control at 140 g/ha [%] |
| --- | --- |
| COC(=O)c1nc(-c2ccc(Cl)c(F)c2C)nc(N)c1OC [Compound 63] | 0 to 29 |
